Source: patent publication US20160082133A1, “CHEMICAL EXCHANGE SATURATION TRANSFER (CEST) BASED MRI USING REPORTER GENES AND SUBSTRATES AND METHODS THEREOF” (The Johns Hopkins University, priority 2013, published 2016)
Several values for one entry are separate records, joined by “and”; a condition that tells them apart may be missing. Equal entries are not always repeated.

Key:
293^HSV1-tk cells = test: Cell viability assay (CellTiter-Blue); assay type: cell-based, human; details: 0.5 mg/ml
Protocol: Cell viability assay was performed using CellTiter-Blue® Cell Viability Assay (Promega), which provides a fluorometric method for estimating the number of viable cells present in 96 well plate. HEK293FT cells transduced with the HSV1-tk (293^HSV1-tk) were plated in 96 well-plate (10,000 cells/well). Cells were incubated for a periods of 4 hours and 24 hours in the presence of ganciclovir (GCV, 0.5 mg/ml in cell medium), compound 2 (0.5 mg/ml in cell medium) and medium (as control). CellTiter-Blue® Reagent was added (20 μl/well) and plate was incubated for 3 hours at 37° C. Finally, fluorescence 560/590 nm was recorded and values obtained from probe containing wells (GCV or 2, N=4) were normalized to values of non-treated cells (control wells) to determine the % of viable cells after the incubation period.

[1] = In vitro CEST-MRI of thymidine analogues at 11.7 T; assay type: physicochemical; details: pH 7.4, 37° C.; for MTRasym (8.5 Hz) / MTRasym (170 Hz) / MTRasym (213 Hz): at 5 ppm for 20 nM agent (so in the source); for MTRasym (128 Hz): at 5 ppm for 20 mM agent
Protocol: All compounds were dissolved at a concentration of 20 mM in phosphate-buffered saline (PBS) (pH=7.4) and placed in microcapillaries, as described previously.^17 CESTMRI experiments were performed on a vertical 11.7 T scanner (Bruker Avance system) at 37° C. A modified RARE sequence (TR/TE=10 000/9.4 ms; RARE factor=16; 1 mm slice thickness; FOV=11×11 mm^2; matrix size=64×32; resolution=0.17×0.34 mm^2; and NA=2) including a magnetization transfer (MT) module ([…]) was used to acquire CEST-weighted images from −8 to +8 ppm with increments of 0.2 ppm around the water resonance, which was assigned to be at 0 ppm. Pixel-based B0 correction was used as described before using the same parameters as above except for TR=1500 ms and B1/tsat=21 Hz/500 ms, with a sweep range from −2 to +2 ppm (0.1 ppm steps). Data processing was performed using custom-written scripts in MATLAB (Mathworks). Mean CEST spectra were plotted from an ROI for each sample, after B0 correction. MTRasym=100×(S^−Aω−S^AωA/^‘−’0)/3 was computed at different offsets Aω.

[2] = Quantification of exchange rates (QUESP, Bloch equation fitting); assay type: physicochemical; details: 11.7 T, pH 7.4, 37° C.; for kex, quantified exchange rates of imino and water protons: 5 ppm for 1-3, 6 ppm for dT
Protocol: Exchange rates were quantified with the saturation power dependent CEST approach (QUESP) and Bloch equation fitting (McMahon et al., Magn. Res. Med. 2006, 55, 836). For each sample, the MTRasym was measured at the imino resonance frequency for CEST saturation fields of 43, 85, 128, 170, 213, 255, 340, and 426 Hz while the saturation pulse duration was kept constant at 4000 ms. The Bloch equations were then fit numerically to these MTRasym values using MATLAB (Mathworks), and the exchange rates (kex, s^−1) were determined from the fits. Errors (95% confidence limits) were estimated using the F statistic.

[3] = CEST-MRI of LRRASLG and LRRApSLG peptides in PBS; assay type: physicochemical; details: 1 mM, PBS pH 7.4, 11.7T
Protocol: Peptides were synthesized by NeoBioSci (Cambridge, Mass.) and provided as lyophilized powder. All compounds were dissolved in 10 mM PBS (pH 1/4 7.4) at the indicated concentration.
(§1) CEST MRI experiments were performed on a vertical 11.7T Bruker Avance system. Approximately […] of each sample was loaded into a capillary tube and up to 20 samples were scanned at each session to minimize variability as described before (Liu G et al., High-throughput screening of chemical exchange saturation transfer MR contrast agents. Contrast Media Mol Imaging 2010; 5:162-17). […] To account for inhomogeneity of the B0 field, the absolute water resonant frequency shift was measured using a modified water saturation shift reference method (Kim M et al., Water saturation shift referencing (WASSR) for chemical exchange saturation transfer (CEST) experiments. Magn Reson Med 2009; 61:1441-1450), using the same parameters as in CEST imaging except pulse repetition time 1/4 1.5 s, saturation pulse 1/4 500 ms, B1 1/4 […], and a sweep range from −2 to +2 ppm (step 1/4 0.1 ppm). […] After B0 correction for each voxel using the water saturation shift reference data, mean CEST-spectra were calculated from a region of interest (ROI) for each sample. […]

PKA = biological target: T1, PKA (Mus musculus, UniProt P05132); test: Phosphorylation assay with recombinant PKA read out by CEST MRI; assay type: biochemical; details: 1 mM peptide
T1 construct: purchased New England Biolabs
Protocol: as §1, with “sample. The MTR asymmetry was quantified as MTRasym 1/4 (S^−Δω−S^+Δω)/S^0 (S^−Δω and S^+Δω are the water peak differentials due to saturation at the target frequency +ω and its negative −ω, respectively. S^0 is the unsaturated signal).” for “sample.”

HEK293 = test: CEST MRI of HEK293 cells expressing hPRM1 (lysate and encapsulated live cells); assay type: cell-based, Human
Protocol: CEST experiments were performed on an 11.7T Bruker Avance system, as previously described. A modified RARE (TR/TE=6000/9.4 ms), including a magnetization transfer module (B1=4.7 μT/4000 ms), was used to acquire CEST-weighted images. The absolute water resonant frequency shift was measured using a modified WASSR method, with the same parameters as in CEST imaging, except for TR=1.5 sec and a saturation pulse of B1=0.5 μT/250 ms, which was used for B0 correction for each voxel using MatLab. MTR asymmetry (MTRasym)=100×(S−Δω−S+Δω)/S0 was computed at different offsets, Δω. Human Embryonic Kidney cells (HEK293), were engineered to express the gene encoding to hPRM1 (NM_002761; 293^hPRM1). Non-expressing wild type cells (293^wt) were used as controls. The cells were lysed or encapsulated in alginate-based microcapsules using Ba^2+ ions as the gelating cation (Barnett, B. P., et al. Nat Protoc 6, 1142-1151 (2011)).

[4] = CEST MRI of CDase substrates and products at 9.4 T; assay type: physicochemical; details: pH 7.4, 37° C.
From the text: All MR images were acquired with a 9.4T Bruker Avance system equipped with a 15 mm sawtooth RF coil. A modified RARE sequence (TR=6.0 sec, effective TE=43.2 ms, RARE factor=16, slice thickness=0.7 mm, FOV=14×14 mm, matrix size=128×64, resolution=0.11×0.22 mm^2, and NA=2) including a magnetization transfer (MT) module (one CW pulse, B=[…] (150 Hz), 3 sec) was used to acquire CEST-weighted images from −6 ppm to 6 ppm (step=0.2 ppm) around the water resonance (0 ppm). The absolute water resonant frequency shift was measured using a Water Saturation Shift Reference (WASSR) (Kim, M. et al. Magnetic Resonance in Medicine 2009, 61, 1441) method modified (Liu, G. et al. Contrast Media Mol Imaging 2010, 5, 162) with Lorentzian analysis. […]
Data processing was performed using custom-written scripts in MATLAB (Mathworks, Waltham, Mass.). CEST spectra were calculated from the mean of an ROI placed over each sample after B0 correction of the contrast on a per voxel basis. The CEST signal was quantified using MTRasym at specific offsets of interest (i.e., &ω=+2 ppm for cytosine or +2.4 ppm for 5FC) using the definition: MTRasym=(S^−˜ω−S^+″ω)/S0, where and s[−˜ω, +Aω] is the water signal intensity in the presence of a saturation pulse at offsets ±Aω, and S0 is water signal intensity in the absence of a saturation pulse.

Nc1nc(O)c2ncn(COC(CO)CO)c2n1 [GCV, ganciclovir, reference compound]
toxic effect on 293^HSV1-tk cells (293^HSV1-tk cells; 4 and 24 hours): cytotoxic effect
cells killed (293^HSV1-tk cells; 24 hour, 293^HSV1-tk): about 50%

O=c1[nH]c(=O)n([C@H]2C[C@H](O)[C@@H](CO)O2)cc1Cl [Compound 4, 5-chloro-2′-deoxyuridine]
CEST contrast from the imino proton [1]: No CEST contrast was observed

CC1(O)C(=O)NC(=O)N([C@H]2C[C@H](O)[C@@H](CO)O2)C1O (stereo partly shown) [Compound 3, thymidine glycol]
kex of the imino proton [2]: 3.7±0.2×10^3 s^−1 and 5.1±0.7×10^3 s^−1
kex, quantified exchange rates of imino and water protons [2]: 3.8 ± 0.2 ×10^3 s^−1
MTRasym (8.5 Hz) [1]: 3%
MTRasym (170 Hz) [1]: 11%
MTRasym (213 Hz) [1]: 16%
MTRasym (128 Hz) [1]: 7%

LRRASLG
CEST contrast of unphosphorylated versus phosphorylated peptide [3]: significantly higher contrast
decrease in CEST contrast on incubation with recombinant PKA (PKA; 4 mM ATP, 30° C.): > 50%
time in which the majority of the signal difference is generated (PKA; recombinant PKA): ≤ 15 min

hPRM1: arginine-rich protein human protamine-1 (NM_002761) expressed as CEST reporter (ARYRCCRSQSRSRYYRQRQRSRRRRRRSCQTRRRAMRCCRPRYRPRCRRH; UniProt P04553 2-51, looked up)
CEST contrast of encapsulated live cells compared to non-expressing wild type cells (HEK293; alginate microcapsules, 1.3 ppm and 3.6 ppm offsets): higher
CEST contrast of 293^hPRM1 lysate compared to wild type lysate (HEK293; cell lysate): significantly higher CEST contrast

Cc1cn([C@H]2C[C@H](O)[C@@H](CO)O2)c(=O)[nH]c1=O [dT, Thymidine, reference compound]
kex of the imino proton [2]: 3.7±0.2×10^3 s^−1
kex, quantified exchange rates of imino and water protons [2]: 5.1 ± 0.7 ×10^3 s^−1
MTRasym (8.5 Hz) [1]: 2%
MTRasym (170 Hz) [1]: 10%
MTRasym (213 Hz) [1]: 15%
MTRasym (128 Hz) [1]: 5%

O=c1[nH]cc(F)c(=O)[nH]1 [5FU, 5-fluorouracil]
MTRasym (CEST contrast) [4]: only limited and non-frequency-specific MTRasym

O=c1cc[nH]c(=O)[nH]1 [uracil]
MTRasym (CEST contrast) [4]: only limited and non-frequency-specific MTRasym
